{"source": "patent US7888059B2", "about": "“Highly purified and stabilized Na,K-ATPase isoforms and methods of producing same” (Yeda Research and Development Co. Ltd., priority 2006, dated 2011)", "assay_type_in_all_cases": "biochemical", "key": {"Na,K-ATPase": {"test_system": "Na,K-ATPase", "test": "Na,K-ATPase activity and stability with different phosphatidyl serines (FIG. 7)", "details": "for NKA activity: measured immediately after elution from the BD Talon beads", "method": "(§1) Urea-treated membranes were homogenized with n-dodecyl-β-maltoside (DDM:protein, 2:1 w/w) (cat. No D310, Anatrace) in a medium containing NaCl, 250 mM; Tris.HCl, 20 mM pH 7.4; imidazole, 5 mM; PMSF, 0.5 mM; and glycerol, 10%. The protein concentration could be varied from 1-5 mg/ml and DDM adjusted accordingly from 2-10 mg/ml respectively. The unsolubilized material was removed by ultracentrifugation. Purification was done by metal-chelate chromatography using BD Talon, metal affinity resin (Co^2+-chelate). The DDM-solubilized membranes were incubated overnight at 4° C. with BD Talon beads, at a ratio of 100 μl beads per supernatant from 10 mg of membranes. EDTA was added at 50-250 μM at protein concentrations 1-5 mg/ml, respectively. The beads were washed twice for five minutes with vortexing with five volumes of a solution containing NaCl, 100 mM; Tris.HCl, 20 mM pH 7.4; C12E8, 0.1 mg/ml; DOPS or SOPS 0.05 mg/ml or other lipids and cholesterol at 0.01 mg/ml, as indicated; glycerol, 10%, and imidazole, 10 mM. Protein was eluted by mixing the beads for 40 minutes at 0° C. with one volume of a solution containing imidazole, 150 mM; NaCl, 100 mM; Tris.HCl, 20 mM pH 7.4, C12E8, 0.1 mg/ml; DOPS, or SOPS 0.05 mg/ml or other lipids and cholesterol as indicated; glycerol, 10%. The eluted protein was stored at 0° C. […] Protein concentration was determined by comparative gel densitometry with pig kidney Na^+,K^+-ATPase or by Lowry assay.\n(§2) Na^+,K^+-ATPase assays were done as described in (Cohen et al., 2005, J Biol Chem, 280, 16610-16618; Strugatsky et al., 2003, J Biol Chem, 278, 46064-46073). 0.1-0.2 μg of purified protein was incubated at 37° C. for 2-10 min in 0.1 ml of Na,K-ATPase reaction medium containing 130 mM NaCl; 20 mM KCl; 3 mM MgCl2; 25 mM Histidine pH 7.4. The reaction was started by addition of 2 mM ATP [^32P-ATP].\nThe experiment in FIG. 7 compared the stability with different chain lengths and saturation of the side chains."}, "human α1β1 [1]": {"target": "T1, human α1β1 (Homo sapiens, UniProt P05023)", "T1 construct": "The coding regions were excised with XbaI and subcloned; made in house; host or cells: Pichia pastoris SMD1165", "test": "Initial Na,K-ATPase activity of human α1β1 prepared with phospholipid with or without cholesterol", "details": "human α1β1, initial activity following elution from the beads, 37° C.", "method": "as §1, with “mM.” for “mM. Protein was eluted by mixing the beads for 40 minutes at 0° C. with one volume of a solution containing imidazole, 150 mM; NaCl, 100 mM; Tris.HCl, 20 mM pH 7.4, C12E8, 0.1 mg/ml; DOPS, or SOPS 0.05 mg/ml or other lipids and cholesterol as indicated; glycerol, 10%. The eluted protein was stored at 0° C.”, “assay. […]” for “assay.”"}, "porcine α1β1": {"target": "T2, porcine α1β1 (Sus scrofa, UniProt P05024)", "T2 construct": "made in house; host or cells: Pichia pastoris SMD1165", "test": "Na,K-ATPase activity of porcine α1β1 with different phospholipids (FIG. 6A)", "details": "porcine α1β1, FIG. 6A", "method": "as §1, §2\nBoth DOPS and DOPI are acid phospholipids, while DOPC and DOPE have no net charge."}, "human α1β1 [2]": {"target": "T1, human α1β1", "test": "Stabilization of human α1β1 Na,K-ATPase activity over time (lipids, sterols, FXYD1)", "details": "for stabilizing effect of sterol on Na,K-ATPase activity: human α1β1 prepared with DOPS or DOPC, FIGS. 9A-B", "method": "as §1, §2\n(§3) Aliquots of the preparations were incubated either at 37° C. or 45° C., respectively, for the indicated times, and then returned to 0° C., prior to measurement of Na,K-ATPase activity."}, "human α1β1 [3]": {"test_system": "human α1β1", "test": "Stabilization of human α1β1 Na,K-ATPase activity over time (lipids, sterols, FXYD1)", "method": "as §1, §2, §3"}, "human α2β1 [4]": {"target": "T3, human α2β1 (Homo sapiens, UniProt P50993)", "T3 construct": "The coding regions were excised with XbaI and subcloned; made in house; host or cells: Pichia pastoris SMD1165 (clone \"b\", induced at 20° C.)", "test": "Stabilization of human α2β1 Na,K-ATPase activity over time (lipids, sterols, FXYD1)", "details": "for stabilizing effect of sterol on α2β1 complex: 0° C., together with DOPS", "method": "as §1, §2, §3"}, "human α1β1 [5]": {"target": "T1, human α1β1", "test": "biochemical", "method": "as §2\n(§4) The inhibitor was added directly to the reaction medium at 37° C. immediately prior to addition of ATP, which starts the reaction."}, "human α2β1 [6]": {"target": "T3, human α2β1", "test": "biochemical", "method": "as §2, §4"}}, "note": "Read-outs that look alike come from different tables or passages of the source.", "data": [{"compound": "CCCCCCCCCCCCCC(=O)OC[C@H](COP(=O)(O)OC[C@H](N)C(=O)O)OC(=O)CCCCCCCCCCCCC", "note": "[DMPS, 1,2-Dimyristoyl-sn-Glycero-3-[Phospho-L-Serine]]", "values": [{"measurement": "NKA activity", "setting": "Na,K-ATPase", "result": 11.48, "unit": "µmol/min/mg"}]}, {"compound": "CCCCCCCC/C=C\\CCCCCCCC(=O)OC[C@H](COP(=O)([O-])OCC[N+](C)(C)C)OC(=O)CCCCCCC/C=C\\CCCCCCCC", "note": "[DOPC, 1,2-Dioleoyl-sn-Glycero-3-Phosphocholine]", "values": [{"measurement": "Na, K-ATPase activity", "setting": "human α1β1 [1]", "result": 14.28, "unit": "µmol/min/mg"}, {"measurement": "maintenance of Na,K-ATPase activity with phospholipid", "setting": "porcine α1β1", "result": "somewhat lower initial Na,K-ATPase activity at 37 °C than for DOPS"}]}, {"compound": "CCCCCCCC/C=C\\CCCCCCCC(=O)OC[C@H](COP(=O)(O)OCCN)OC(=O)CCCCCCC/C=C\\CCCCCCCC", "note": "[DOPE, 1,2-Dioleoyl-sn-Glycero-3-Phosphoethanolamine]", "values": [{"measurement": "maintenance of Na,K-ATPase activity with phospholipid", "setting": "porcine α1β1", "result": "DOPS>DOPI>>DOPE"}]}, {"compound": "CCCCCCCC/C=C\\CCCCCCCC(=O)OC[C@H](COP(=O)(O)OC1C(O)C(O)C(O)[C@@H](O)C1O)OC(=O)CCCCCCC/C=C\\CCCCCCCC", "note": "(some centres unmarked) [DOPI, 1,2-Dioleoyl-sn-Glycero-3-Phosphoinositol]", "values": [{"measurement": "maintenance of Na,K-ATPase activity with phospholipid", "setting": "porcine α1β1", "result": "DOPS>DOPI>>DOPE"}]}, {"compound": "CCCCCCCC/C=C\\CCCCCCCC(=O)OC[C@H](COP(=O)(O)OC[C@H](N)C(=O)O)OC(=O)CCCCCCC/C=C\\CCCCCCCC", "note": "[DOPS, 1,2-Dioleoyl-sn-Glycero-3-[Phospho-L-Serine]]", "values": [{"measurement": "half-time for loss of activity", "setting": "human α1β1 [2]; 37° C., human α1β1 prepared with DOPS, without PLM", "result": "about 70 minutes"}, {"measurement": "remaining activity, of initial activity", "setting": "human α1β1 [2]; after 120 minutes at 37° C., human α1β1 prepared with DOPS, without PLM", "result": "approximately 20%"}, {"measurement": "NKA activity", "setting": "Na,K-ATPase", "result": 11.42, "unit": "µmol/min/mg"}, {"measurement": "Na, K-ATPase activity", "setting": "human α1β1 [1]", "result": 11.64, "unit": "µmol/min/mg"}, {"measurement": "maintenance of Na,K-ATPase activity with phospholipid", "setting": "porcine α1β1", "result": "DOPS>DOPI>>DOPE"}]}, {"compound": "CCCCCCCCCCCCCCCC(=O)OC[C@H](COP(=O)(O)OC[C@H](N)C(=O)O)OC(=O)CCCCCCCCCCCCCCC", "note": "[DPPS, 1,2-Dipalmitoyl-sn-Glycero-3-[Phospho-L-Serine]]", "values": [{"measurement": "NKA activity", "setting": "Na,K-ATPase", "result": 6.46, "unit": "µmol/min/mg"}]}, {"compound": "CCCCCCCCCCCCCCCCCC(=O)OC[C@H](COP(=O)(O)OC[C@H](N)C(=O)O)OC(=O)CCCCCCCCCCCCCCCCC", "note": "[DSPS, 1,2-Distearoyl-sn-Glycero-3-[Phospho-L-Serine]]", "values": [{"measurement": "NKA activity", "setting": "Na,K-ATPase", "result": 4.72, "unit": "µmol/min/mg"}]}, {"compound": "CCCCCCCC/C=C\\CCCCCCCC(=O)O[C@H](COC(=O)CCCCCCCCCCCCCCC)COP(=O)(O)OC[C@H](N)C(=O)O", "note": "[POPS, 1-Palmitoyl-2-Oleoyl-sn-Glycero-3-[Phospho-L-Serine]]", "values": [{"measurement": "NKA activity", "setting": "Na,K-ATPase", "result": 12.58, "unit": "µmol/min/mg"}]}, {"compound": "CCCCCCCC/C=C\\CCCCCCCC(=O)O[C@H](COC(=O)CCCCCCCCCCCCCCCCC)COP(=O)(O)OC[C@H](N)C(=O)O", "note": "[SOPS, I-Stearoyl-2-Oleoyl-sn-Glycero-3-[Phospho-L-Serine]]", "values": [{"measurement": "stabilizing effect of phosphatidyl serine on α1β1", "setting": "human α1β1 [3]; 37° C. and 0° C., FIGS. 8A-B (porcine and human α1β1)", "result": "significantly more stabilizing than DOPS"}, {"measurement": "stability of Na,K-ATPase activity over time", "setting": "Na,K-ATPase; 0° C., FIG. 7", "result": "declined even more slowly than with the standard DOPS"}, {"measurement": "NKA activity", "setting": "Na,K-ATPase", "result": 11.92, "unit": "µmol/min/mg"}]}, {"compound": "CC(C)CCC[C@@H](C)[C@H]1CC[C@H]2[C@@H]3CC=C4C[C@@H](O)CC[C@]4(C)[C@H]3CC[C@]12C", "note": "[cholesterol]", "values": [{"measurement": "stabilizing effect of sterol on Na,K-ATPase activity", "setting": "human α1β1 [2]; 37° C.", "result": "greatly stabilizes"}, {"measurement": "stabilizing effect of sterol on α2β1 complex", "setting": "human α2β1 [4]", "result": "greatly stabilized"}]}, {"compound": "C[C@H]1O[C@@H](O[C@H]2[C@@H](O)C[C@H](O[C@H]3[C@@H](O)C[C@H](O[C@H]4CC[C@@]5(C)[C@H](CC[C@@H]6[C@@H]5C[C@@H](O)[C@]5(C)[C@@H](C7=CC(=O)OC7)CC[C@]65O)C4)O[C@@H]3C)O[C@@H]2C)C[C@H](O)[C@@H]1O", "note": "[digoxin]", "values": [{"measurement": "offset (activity not inhibited), α1β1", "setting": "human α1β1 [5]", "result": "no significant offset"}, {"measurement": "offset (activity not inhibited), α2β1", "setting": "human α2β1 [6]", "result": "0.058±0.016"}]}, {"compound": "CC(C)[C@@H](C)/C=C/[C@@H](C)[C@H]1CC[C@H]2C3=CC=C4C[C@@H](O)CC[C@]4(C)[C@H]3CC[C@]12C", "note": "[ergosterol]", "values": [{"measurement": "stabilizing effect of sterol on Na,K-ATPase activity", "setting": "human α1β1 [2]; 37° C.", "result": "only a minor stabilizing effect"}, {"measurement": "stabilizing effect of sterol on α2β1 complex", "setting": "human α2β1 [4]", "result": "much less effective than cholesterol"}]}, {"compound": "CO[C@H]1[C@H](O)[C@H](O[C@H]2CC[C@@]3(C)[C@H](CC[C@@H]4[C@@H]3CC[C@]3(C)[C@@H](C5=CC(=O)OC5)CC[C@]43O)C2)O[C@@H](C)[C@@H]1O", "note": "[neriifolin]", "values": [{"measurement": "offset, α1", "setting": "human α1β1 [5]; 37° C., FIG. 18B", "result": 0}, {"measurement": "IC50", "setting": "human α1β1 [5]; K0.5 for inhibition, α1, 37° C., FIG. 18B, reaction time not stated", "result": "0.05 ± 0.007", "unit": "µM"}, {"measurement": "α1/α2 preference", "setting": "human α1β1 [5]; conditions of the Na,K-ATPase reaction at 37° C.", "result": "no significant α1/α2 preference"}, {"measurement": "offset, α2", "setting": "human α2β1 [6]; 37° C., FIG. 18B", "result": 0.12}, {"measurement": "IC50", "setting": "human α2β1 [6]; K0.5 for inhibition, α2, 37° C., FIG. 18B, reaction time not stated", "result": "0.029 ± 0.0041", "unit": "µM"}]}, {"compound": "C[C@@H]1O[C@@H](O[C@H]2C[C@@H](O)[C@]3(CO)[C@H]4[C@H](O)C[C@]5(C)[C@@H](C6=CC(=O)OC6)CC[C@]5(O)[C@@H]4CC[C@]3(O)C2)[C@H](O)[C@H](O)[C@H]1O", "note": "[ouabain]", "values": [{"measurement": "extent of inhibition of α1β1", "setting": "human α1β1 [5]; 37° C., reaction 10 minutes", "result": "fully inhibited"}, {"measurement": "offset (activity not inhibited), α2β1", "setting": "human α2β1 [6]; 37° C., 60 minutes", "result": "0.056±0.017"}, {"measurement": "offset (activity not inhibited), α2β1", "setting": "human α2β1 [6]; 37° C., reaction 10 minutes", "result": "0.069±0.01"}]}, {"compound": "PLM: human FXYD1, subsidiary subunit of Na,K-ATPase, Genbank Accession No. H23593", "values": [{"measurement": "stability of Na,K-ATPase activity", "setting": "human α1β1 [3]; 37° C., human α1β1, PLM with DOPS preparation, SOPS/cholesterol without PLM", "result": "essentially no loss of activity up to 120 minutes"}, {"measurement": "stability of Na,K-ATPase activity", "setting": "human α2β1 [4]; 37° C., α2β1 prepared with SOPS/cholesterol with PLM", "result": "essentially stable for 60 minutes at 37 °C"}]}]}
